Experimental data as given in publication PMC7357171 (Toxicological Sciences, 2020).
Marks after values point to notes of the source that are not given here.

Key:
[1] = molecular target: carbonic anhydrase type I; conditions: read-out: Ki used as PoD for the MoS calculation; ref PubChem; cited from earlier work
HepaRG 3D [2] = test: In vitro cell stress panel in HepaRG 3D spheroids; assay type: cell-based, human
[3] = Determination of the margin of safety; conditions: for Preliminary MoS (range): PoDs of the in vitro bioactivity characterization step
MAO-A [4] = molecular target: T1, MAO-A (Rattus norvegicus, UniProt P21396); test: SafetyScreen44 MAO-A; assay type: binding; conditions: coumarin 10 µM
T1 sequence (P21396 1-526): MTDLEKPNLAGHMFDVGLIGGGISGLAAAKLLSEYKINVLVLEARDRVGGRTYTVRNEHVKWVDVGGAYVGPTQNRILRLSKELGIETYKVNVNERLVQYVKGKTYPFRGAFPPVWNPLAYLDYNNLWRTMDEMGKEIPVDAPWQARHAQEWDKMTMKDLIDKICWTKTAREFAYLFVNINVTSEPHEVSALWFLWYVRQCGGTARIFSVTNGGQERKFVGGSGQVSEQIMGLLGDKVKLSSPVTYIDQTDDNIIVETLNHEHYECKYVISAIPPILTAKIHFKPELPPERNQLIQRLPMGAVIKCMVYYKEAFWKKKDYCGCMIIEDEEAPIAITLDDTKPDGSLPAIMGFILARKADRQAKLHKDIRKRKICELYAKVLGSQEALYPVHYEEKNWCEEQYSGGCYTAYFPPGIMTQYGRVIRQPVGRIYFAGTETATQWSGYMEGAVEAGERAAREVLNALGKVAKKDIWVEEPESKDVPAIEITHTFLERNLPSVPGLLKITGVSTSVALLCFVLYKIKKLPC

[5] = molecular target: carbonic anhydrase type IV; conditions: read-out: Ki used as PoD for the MoS calculation; ref PubChem; cited from earlier work
[6] = assessment factor of 100 on the animal NOAEL; ref EFSA, 2008; cited from earlier work
[7] = test system: SAg-stimulated PBMC and endothelial cell coculture system; test: BioMap Diversity 8 Panel, SAg system; assay type: cell-based, human; conditions: up to 500 µM
mES reporter cell lines = test: ToxTracker genotoxicity assay; assay type: cell-based
HepaRG 2D = test: High-throughput transcriptomics
[8] = test system: LPS-stimulated PBMC and endothelial cell coculture system; test: BioMap Diversity 8 Panel, LPS system; assay type: cell-based, human; conditions: up to 500 µM
HepaRG 3D [9] = test: High-throughput transcriptomics; assay type: cell-based, human
[10] = test system: 8 cell-based human primary cell cultures (or cocultures); conditions: ref ToxCast, CompTox Chemicals Dashboard; cited from earlier work
MAO-B = conditions: ref Gnerre et al., 2000; cited from earlier work
MAO-A [11] = molecular target: T1, MAO-A; conditions: ref Gnerre et al., 2000; cited from earlier work
[12] = Human cryopreserved hepatocyte stability assay; assay type: in vitro ADME; conditions: cryopreserved hepatocytes
CYP2A6 = molecular target: T2, CYP2A6 (Homo sapiens, UniProt P11509); test: Compound stability in expressed human CYP2A6; conditions: heterologously expressed (recombinant) CYP2A6
T2 sequence (P11509 1-494): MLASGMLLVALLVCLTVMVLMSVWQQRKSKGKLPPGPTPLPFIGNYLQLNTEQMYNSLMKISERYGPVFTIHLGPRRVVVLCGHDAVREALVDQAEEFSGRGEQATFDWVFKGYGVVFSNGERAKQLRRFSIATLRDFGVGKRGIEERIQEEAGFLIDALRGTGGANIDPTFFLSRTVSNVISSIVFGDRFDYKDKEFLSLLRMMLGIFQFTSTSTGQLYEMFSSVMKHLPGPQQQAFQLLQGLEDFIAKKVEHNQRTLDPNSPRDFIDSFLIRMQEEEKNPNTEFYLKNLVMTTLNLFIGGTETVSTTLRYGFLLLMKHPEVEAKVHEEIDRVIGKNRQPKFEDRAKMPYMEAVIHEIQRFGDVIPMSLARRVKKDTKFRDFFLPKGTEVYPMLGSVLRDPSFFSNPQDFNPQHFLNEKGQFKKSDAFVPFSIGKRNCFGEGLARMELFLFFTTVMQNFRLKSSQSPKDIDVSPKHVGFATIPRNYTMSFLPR

MCF7 = test: High-throughput transcriptomics

For `O=c1ccc2ccccc2o1` [Coumarin], the Ki [1] is listed as 3 µM, the “biomarker changes at 24 h” value (HepaRG 3D [2]) is listed as “no changes” and the “Body Lotion Min. 5th percentile MoS” value ([3]; PubChem, Carbonic Anhydrase Type I) is listed as 158. The “Preliminary MoS (range)” value ([3]; body lotion) was 158-22048, the “MoS (the 5th percentile), all PoDs” value ([3]; face cream and body lotion) was “higher than 100” and the “Preliminary MoS (range)” value ([3]; face cream) was 706-96738. The “Mean % inhibition, Specific binding” value (MAO-A [4]) was 22%, the Ki [5] was 62.3 µM and the “tolerable daily intake (TDI) for coumarin in foods” value [6] was 0 to 0.1 mg/kg/day. For the same compound, the biomarkers affected [7] was “No biomarkers were affected”, the “Blvrb-GFP oxidative stress marker” value (mES reporter cell lines; presence of S9, 24 h) was “activated” and the “Btg2-GFP reporter (p53 response) activation” value (mES reporter cell lines; presence of S9, 24 h) was “weak activation”. The “Srxn1-GFP oxidative stress marker” value (mES reporter cell lines; presence of S9, 24 h) was “activated”, the cytotoxicity (mES reporter cell lines; up to 1000 µM, absence or presence of S9) was “No significant cytotoxicity” and the “Srxn1-GFP oxidative stress reporter” value (mES reporter cell lines; without metabolic activation, 24 h) was “induced”. The “cytotoxicity (> 20%)” value (HepaRG 2D; 2D HepaRG, up to the maximum tested concentration, data not shown) was “No significant cytotoxicity”, the “PoDT, Mean BMD of genes between 25th and 75th percentile” value (HepaRG 2D; HepaRG 2D, 24 h) was 59 µM and the “number of pathways in pathway-level tests” value (from here on “number of pathways”) (HepaRG 2D; HepaRG 2D, 24 h) was 17 pathways. For the same compound, the biomarkers affected [8] was “No biomarkers were affected”, the “summarized PoDs after 24 h exposure (range)” value (HepaRG 3D [9]) was 41 to 55 µM and the “PoDT, BMD of Reactome pathway with lowest BMD that meets significance threshold criteria” value (HepaRG 3D [9]; 24 h) was 41 µM. The “number of genes in gene-level tests” value (HepaRG 3D [9]; 24 h) was “(9 genes)”, the “PoDT, Mean BMD of genes between 25th and 75th percentile” value (HepaRG 3D [9]; 24 h, fewer than 20 genes (*)) was 46* µM and the “PoDT, 20 pathways with the lowest BMD Reactome” value (HepaRG 3D [9]; 24 h, fewer than 20 pathways (*)) was 46* µM. For the same compound, the “number of genes in gene-level tests” value (HepaRG 3D [9]; 24 h, listed as coumarin) was 9 genes, the “number of pathways” value (HepaRG 3D [9]; 24 h, listed as coumarin) was 2 pathways and the “concentration-response in BioMap data generated during the ToxCast program” value [10] was “No concentration-response”. For the same compound, the IC50 (MAO-B) was 40.7 µM, the IC50 (MAO-A [11]) was 12 µM and the “PoDT, 20 pathways with the lowest BMD Reactome” value (HepG2; HepG2, 24 h) was 44 µM. For the same compound, the “PoDT, BMD of Reactome pathway with lowest BMD that meets significance threshold criteria” value (HepG2; HepG2, 24 h) was 31 µM, the “PoDT, Mean BMD of genes between 25th and 75th percentile” value (HepG2; HepG2, 24 h) was 17 µM and the “number of genes in gene-level tests” value (HepG2; HepG2, 24 h) was “(1570 genes)”. For the same compound, the “number of pathways” value (HepG2; HepG2, 24 h) was “(308 pathways)”, the “cytotoxicity (> 20%)” value (HepG2; HepG2, up to the maximum tested concentration, data not shown) was “No significant cytotoxicity” and the half-life [12] was 13 min. The half-life at 1 µM (CYP2A6) was less than 5 min, the “PoDT, Mean BMD of genes between 25th and 75th percentile” value (MCF7; MCF7, 24 h) was 1 µM and the “cytotoxicity (> 20%)” value (MCF7; MCF7, up to the maximum tested concentration, data not shown) was “No significant cytotoxicity”.
